Data reported in US7115600B2, “Histamine-3 receptor modulators” (Pfizer Inc., priority 2004, dated 2006).

Biological target: T1, rat histamine H3 receptors (Rattus norvegicus, UniProt Q9QYN8)
T1 construct: Frozen rat frontal brain or frozen human post-mortem frontal brain is homogenized; from tissue; host or cells: rat frontal brain membranes
Test: Rat Histamine H3 Receptor Binding
Details: frozen rat frontal brain membranes; radioligand 1 nM 3H-N-methyl-histamine; 1 hour incubation; read-out: rH3 Ki

T1 sequence (Q9QYN8 whole entry): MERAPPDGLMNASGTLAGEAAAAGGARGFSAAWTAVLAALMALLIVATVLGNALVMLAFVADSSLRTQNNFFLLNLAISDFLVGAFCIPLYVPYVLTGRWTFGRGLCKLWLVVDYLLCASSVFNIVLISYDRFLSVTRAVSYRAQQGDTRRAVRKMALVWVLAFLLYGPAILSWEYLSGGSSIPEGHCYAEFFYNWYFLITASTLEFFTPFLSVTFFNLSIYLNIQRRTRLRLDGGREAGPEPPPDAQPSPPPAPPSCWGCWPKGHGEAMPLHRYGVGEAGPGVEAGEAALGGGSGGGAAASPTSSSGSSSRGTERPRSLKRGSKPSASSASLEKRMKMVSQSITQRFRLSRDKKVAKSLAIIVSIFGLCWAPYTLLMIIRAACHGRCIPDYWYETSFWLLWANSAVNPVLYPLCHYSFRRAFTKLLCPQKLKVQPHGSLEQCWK

Ki [nM]	Structure (SMILES)
26.2	Cc1cnc(OC[C@H]2C[C@@H](c3ccc(CN4CCCC4)cc3)C2)nc1C1CCCNC1 (relative stereo) [Example 59, cis-5-Methyl-4-piperidin-3-yl-2-[3-(4-pyrrolidin-1-ylmethyl-phenyl)-cyclobutylmethoxy]-pyrimidine]
7.28	c1cc(C2CCNC2)nc(OC[C@H]2C[C@@H](c3ccc(CN4CCCC4)cc3)C2)n1 (relative stereo) [Example 65, cis-4-Pyrrolidin-3-yl-2-[3-(4-pyrrolidin-1-ylmethyl-phenyl)-cyclobutylmethoxy]-pyrimidine]
4.75	Cc1cc(C2CCNC2)nc(OC[C@H]2C[C@@H](c3ccc(CN4CCCC4)cc3)C2)n1 (relative stereo) [Example 66, cis-4-Methyl-6-pyrrolidin-3-yl-2-[3-(4-pyrrolidin-1-ylmethyl-phenyl)-cyclobutylmethoxy]-pyrimidine]
3.79	Cc1cnc(OC[C@H]2C[C@@H](c3ccc(CN4CCCC4)cc3)C2)nc1C1CCNC1 (relative stereo) [Example 88, cis-5-Methyl-4-pyrrolidin-3-yl-2-[3-(4-pyrrolidin-1-ylmethyl-phenyl)-cyclobutylmethoxy]-pyrimidine]
5.38	c1ccc(C2CCCN2C[C@H]2C[C@@H](c3ccc(CN4CCCC4)cc3)C2)nc1 (relative stereo) [Example 105, cis-2-{1-[3-(4-Pyrrolidin-1-ylmethyl-phenyl)-cyclobutylmethyl]-pyrrolidin-2-yl}-pyridine]
2.55	c1ccc(C2CCCN2C[C@H]2C[C@H](c3ccc(CN4CCCC4)cc3)C2)nc1 (relative stereo) [Example 109, trans-2-{1-[3-(4-Pyrrolidin-1-ylmethyl-phenyl)-cyclobutylmethyl]-pyrrolidin-2-yl}-pyridine]
0.73	CC1CCCCN1C[C@H]1C[C@H](c2ccc(CN3CCCC3)cc2)C1 (relative stereo) [Example 117, trans-2-Methyl-1-[3-(4-pyrrolidin-1-ylmethyl-phenyl)-cyclobutylmethyl]-piperidine]
0.65	CC1CCCN(C[C@H]2C[C@H](c3ccc(CN4CCCC4)cc3)C2)C1 (relative stereo) [Example 118, trans-3-Methyl-1-[3-(4-pyrrolidin-1-ylmethyl-phenyl)-cyclobutylmethyl]-piperidine]
3.35	CC1CCCN1C[C@H]1C[C@H](c2ccc(CN3CCCC3)cc2)C1 (relative stereo) [Example 120, trans-2-Methyl-1-[3-(4-pyrrolidin-1-ylmethyl-phenyl)-cyclobutylmethyl]-pyrrolidine]
8.34	OC1(c2ccc(CN3CCCC3)cc2)CC(COCc2ccccc2)C1 (stereo not shown) [Example 1, 3-Benzyloxymethyl-1-(4-pyrrolidin-1-ylmethyl-phenyl)-cyclobutanol]
98.8	c1ccc(COCC2CC(c3ccc(CN4CCCC4)cc3)C2)cc1 (stereo not shown) [Example 2, 1-[4-(3-Benzyloxymethyl-cyclobutyl)-benzyl]-pyrrolidine]
5.65	Cc1ccc(S(=O)(=O)OCC2CC(c3ccc(CN4CCCC4)cc3)C2)cc1 (stereo not shown) [Example 4, Toluene-4-sulfonic acid 3-(4-pyrrolidin-1-ylmethyl-phenyl)-cyclobutylmethyl ester]
89.2	N#Cc1cccc(COCC2CC(c3ccc(CN4CCCC4)cc3)C2)c1 (stereo not shown) [Example 5, 3-[3-(4-Pyrrolidin-1-ylmethyl-phenyl)-cyclobutylmethoxymethyl]-benzonitrile]
122	N#Cc1ccccc1COCC1CC(c2ccc(CN3CCCC3)cc2)C1 (stereo not shown) [Example 6, 2-[3-(4-Pyrrolidin-1-ylmethyl-phenyl)-cyclobutylmethoxymethyl]-benzonitrile]
99.2	N#Cc1ccc(COCC2CC(c3ccc(CN4CCCC4)cc3)C2)cc1 (stereo not shown) [Example 7, 4-[3-(4-Pyrrolidin-1-ylmethyl-phenyl)-cyclobutylmethoxymethyl]-benzonitrile]
79.4	Fc1cc(F)cc(COCC2CC(c3ccc(CN4CCCC4)cc3)C2)c1 (stereo not shown) [Example 14, 1-(4-{-3-[(3,5-Difluoro-phenyl)methoxymethyl]-cyclobutyl}-benzyl)-pyrrolidine]
74.2	Cc1ccc(COCC2CC(c3ccc(CN4CCCC4)cc3)C2)cc1 (stereo not shown) [Example 27, 1-{4-[3-(4-Methyl-benzyloxymethyl)-cyclobutyl]-benzyl}-pyrrolidine]
74.3	c1cnc(OCC2CC(c3ccc(CN4CCCC4)cc3)C2)cn1 (stereo not shown) [Example 40, 2-[3-(4-Pyrrolidin-1-ylmethyl-phenyl)-cyclobutylmethoxy]-pyrazine]
32	Cc1cnc(C)c(OCC2CC(c3ccc(CN4CCCC4)cc3)C2)n1 (stereo not shown) [Example 41, 2,5-Dimethyl-3-[3-(4-pyrrolidin-1-ylmethyl-phenyl)-cyclobutylmethoxy]-pyrazine]
131	c1ccc(OCC2CC(c3ccc(CN4CCCC4)cc3)C2)nc1 (stereo not shown) [Example 42, 2-[3-(4-Pyrrolidin-1-ylmethyl-phenyl)-cyclobutylmethoxy]-pyridine]

Ki [nM]	Structure (SMILES)
44.4	COc1ccc(OCC2CC(c3ccc(CN4CCCC4)cc3)C2)nn1 (stereo not shown) [Example 44, 3-Methoxy-6-[3-(4-pyrrolidin-1-ylmethyl-phenyl)-cyclobutylmethoxy]-pyridazine]
104	COc1cc(OCC2CC(c3ccc(CN4CCCC4)cc3)C2)nc(OC)n1 (stereo not shown) [Example 46, 2,4-Dimethoxy-6-[3-(4-pyrrolidin-1-ylmethyl-phenyl)-cyclobutylmethoxy]-pyrimidine]
23.2	Cc1ccc(S(=O)(=O)OC[C@H]2C[C@@H](c3ccc(CN4CCCC4)cc3)C2)cc1 [Example 47, cis-Toluene-4-sulfonic acid 3-(4-pyrrolidin-1-ylmethyl-phenyl)-cyclobutylmethyl ester]
98	Cc1ccc(S(=O)(=O)OC[C@H]2C[C@H](c3ccc(CN4CCCC4)cc3)C2)cc1 [Example 48, trans-Toluene-4-sulfonic acid 3-(4-pyrrolidin-1-ylmethyl-phenyl)-cyclobutylmethyl ester]
92.6	Cc1cc(C)nc(OC[C@H]2C[C@H](c3ccc(CN4CCCC4)cc3)C2)n1 [Example 55, trans-4,6-Dimethyl-2-[3-(4-pyrrolidin-1-ylmethyl-phenyl)-cyclobutylmethoxy]-pyrimidine]
101	CCc1cnc(OC[C@H]2C[C@H](c3ccc(CN4CCCC4)cc3)C2)nc1 [Example 57, trans-5-Ethyl-2-[3-(4-pyrrolidin-1-ylmethyl-phenyl)-cyclobutylmethoxy]-pyrimidine]
12.5	Fc1cnc(OCC2CC(c3ccc(CN4CCCC4)cc3)C2)nc1C1CCNCC1 (stereo not shown) [Example 74, 5-Fluoro-4-piperidin-4-yl-2-[3-(4-pyrrolidin-1-ylmethyl-phenyl)-cyclobutylmethoxy]-pyrimidine]
1.89	FC(F)(F)c1cc(-c2ccccc2)nc(OC[C@H]2C[C@@H](c3ccc(CN4CCCC4)cc3)C2)n1 [Example 76, cis-4-Phenyl-2-{[3-(4-pyrrolidin-1-ylmethyl-phenyl)-cyclobutylmethyl]oxy}-6-trifluoromethyl-pyrimidine]
42.5	Cc1cc(C2CCNCC2)nc(OC[C@H]2C[C@@H](c3ccc(CN4CCCC4)cc3)C2)n1 [Example 77, cis-4-Methyl-6-piperidin-4-yl-2-[3-(4-pyrrolidin-1-ylmethyl-phenyl)-cyclobutylmethoxy]-pyrimidine]
110	Cc1nnc(OC[C@H]2C[C@@H](c3ccc(CN4CCCC4)cc3)C2)c2ccccc12 [Example 78, cis-1-Methyl-4-[3-(4-pyrrolidin-1-ylmethyl-phenyl)-cyclobutylmethoxy]-phthalazine]
58	Cc1cnc(OC[C@H]2C[C@@H](c3ccc(CN4CCCC4)cc3)C2)nc1C1CCNCC1 [Example 81, cis-5-Methyl-4-piperidin-4-yl-2-[3-(4-pyrrolidin-1-ylmethyl-phenyl)-cyclobutylmethoxy]-pyrimidine]
68.8	Cc1cc(C(=O)Nc2ccccc2)nc(OC[C@H]2C[C@@H](c3ccc(CN4CCCC4)cc3)C2)n1 [Example 83, cis-6-Methyl-2[3-(4-pyrrolidin-1-ylmethyl-phenyl)-cyclobutylmethoxy]-pyrimidine-4-carboxylic acid phenylamide]
33.6	Cc1ccc(C)n1-c1ccc(OC[C@H]2C[C@@H](c3ccc(CN4CCCC4)cc3)C2)nn1 [Example 90, cis-3-(2,5-Dimethyl-pyrrol-1-yl)-6-{[3-(4-pyrrolidin-1-ylmethyl-phenyl)-cyclobutylmethyl]oxy}-pyridazine]
118	COc1ccc(-c2cnc(OC[C@H]3C[C@@H](c4ccc(CN5CCCC5)cc4)C3)nc2)cc1 [Example 92, cis-5-(4-Methoxy-phenyl)-2-[3-(4-pyrrolidin-1-ylmethyl-phenyl)-cyclobutylmethoxy]-pyrimidine]
4.81	c1cc([C@H]2C[C@@H](CN3CCNCC3)C2)ccc1CN1CCCC1 [Example 101, cis-1-[3-(4-Pyrrolidin-1-ylmethyl-phenyl)-cyclobutylmethyl]-piperazine]
1.83	Fc1cnc(N2CCN(C[C@H]3C[C@@H](c4ccc(CN5CCCC5)cc4)C3)CC2)nc1 [Example 102, cis-5-Fluoro-2-{4-[3-(4-pyrrolidin-1-ylmethyl-phenyl)-cyclobutylmethyl]-piperazin-1-yl}-pyrimidine]
3.93	c1cc([C@H]2C[C@@H](CN3CCCC3)C2)ccc1CN1CCCC1 [Example 103, cis-1-[3-(4-Pyrrolidin-1-ylmethyl-phenyl)-cyclobutylmethyl]-pyrrolidine]
2.78	c1cc([C@H]2C[C@@H](CN3CCCCC3)C2)ccc1CN1CCCC1 [Example 104, cis-1-[3-(4-Pyrrolidin-1-ylmethyl-phenyl)-cyclobutylmethyl]-piperidine]
8.35	C[C@@H]1CN(C[C@H]2C[C@@H](c3ccc(CN4CCCC4)cc3)C2)C[C@H](C)O1 [Example 106, cis-(2R,6S)-2,6-Dimethyl-4-[3-(4-pyrrolidin-1-ylmethyl-phenyl)-cyclobutylmethyl]-morpholine]
2.09	c1cc([C@H]2C[C@H](CN3CCCC3)C2)ccc1CN1CCCC1 [Example 107, trans-1-[3-(4-Pyrrolidin-1-ylmethyl-phenyl)-cyclobutylmethyl]-pyrrolidine]
